# Results: patent publication US20260001864A1, “COMPOUND CONTAINING SULFAMIDE STRUCTURE, AND PREPARATION METHOD THEREFOR AND APPLICATION THEREOF, AND PHARMACEUTICAL COMPOSITION AND APPLICATION” (Nanjing Shuohui Pharmatechnology Co., Ltd, priority 2021, published 2026)
# Counter-ions that a name gives are not always drawn.
# Biological target: H+/K+-ATPase (rabbit gastric mucosal microsomes) (Oryctolagus cuniculus (Rabbit), UniProt P27112)
# Test: In vitro screening test of H+/K+-ATPase inhibition (malachite green)
# Assay type: biochemical
# Details: pH 6.5, 37° C. 30 min, read-out: IC50, inhibitory effect on H+/K+-ATPase activity
# Excerpt: This test example evaluates the inhibitory effects of the compounds of the present invention on the activity of H+/K+-ATPase by an in vitro screening test, and expresses them with the IC50 values of the compounds (obtained by calculating the inhibition rates at different concentrations).
# • Compound solutions: The products (i.e., the compounds or the hydrochloride salt of compounds) obtained in the foregoing preparation examples of the present invention were each independently dissolved in DMSO to form solutions at suitable concentrations; • Buffer I: 50 mmol/L HEPEs-Tris, pH=6.5, 5 mmol/L magnesium chloride, […] valinomycin (J&K Scientific Ltd., goods No.: 227304); • Buffer II: 50 mmol/L HEPEs-Tris, pH=6.5, 5 mmol/L magnesium chloride, […] valinomycin, 5 mmol/L potassium chloride; • 5-adenosine triphosphate (ATP, Sigma-Aldrich, goods No.: A2383) solution: Dilute ATP with buffer I to 5 mM; • Malachite green solution: Dissolve 0.12 wt % malachite green (J&K Scientific Ltd., goods No.: 913120) in 2.5 mol/L sulfuric acid, 7.5 wt % ammonium molybdate (J&K Scientific Ltd., goods No.: 128321) and 11% Tween 20(V/V). During use, sulfuric acid, ammonium molybdate and Tween 20 are mixed in a ratio of 100:25:2; • Rabbit gastric mucosal microsomes (rich in H+/K+-ATPase, self-extracted), extracted by sucrose gradient centrifugation: The rabbit stomach was washed with tap water and 3M NaCl solution, respectively, and then the surface water was removed with filter paper. A pre-cooled homogenization buffer (4 ml/g tissue) was added and homogenized for 2-5 min in a tissue homogenizer. After the homogenizing, if there are large tissue particles, they can be removed by centrifugation (600 g, 10 min). The supernatant was then transferred to a clean centrifuge tube and centrifuged at 20,000 g for 30 min, then the supernatant was transferred to a clean centrifuge tube and further centrifuged at 100,000 g for 90 min and the precipitate was collected; the precipitate was suspended in homogenate and blown evenly, and the protein concentration was measured by the Bradford's method and adjusted to 10 mg/ml; 7.5 wt % Ficoll's layering solution was added in equal proportions. After centrifugation at 100,000 g for 60 min, the middle layer (H^+/K^+-ATPase-enriched gastric membranes) was collected in a clean centrifuge tube, diluted with homogenate by 4-5 times, and then centrifuged at 100,000 g for another 90 min, and the precipitate was collected; the precipitate was suspended in homogenate and homogenized in a glass homogenizer, and the protein concentration was measured by the Bradford's method and adjusted to 22.5 mg/ml. It was frozen at −80° C. and stored for future use.
# 5 μL of rabbit gastric mucosal microsomes (H^+/K^+-ATPase) was added to 45 μL of buffer II, then 5 μL of compound solution was added, and then 5 μL of 5 mM ATP solution was added to start the reaction and pre-react at 37° C. for 30 min. 15 μL of malachite green solution was added to terminate the reaction, balancing was conducted at room temperature for 20 min, and read the optical absorbance at 620 nm.
# Meanwhile, the reaction of the same volume was carried out without addition of potassium chloride as a background, which was subtracted when calculating enzymatic activity.
# H+/K+-ATPase (rabbit gastric mucosal microsomes), sequence (P27112 whole entry): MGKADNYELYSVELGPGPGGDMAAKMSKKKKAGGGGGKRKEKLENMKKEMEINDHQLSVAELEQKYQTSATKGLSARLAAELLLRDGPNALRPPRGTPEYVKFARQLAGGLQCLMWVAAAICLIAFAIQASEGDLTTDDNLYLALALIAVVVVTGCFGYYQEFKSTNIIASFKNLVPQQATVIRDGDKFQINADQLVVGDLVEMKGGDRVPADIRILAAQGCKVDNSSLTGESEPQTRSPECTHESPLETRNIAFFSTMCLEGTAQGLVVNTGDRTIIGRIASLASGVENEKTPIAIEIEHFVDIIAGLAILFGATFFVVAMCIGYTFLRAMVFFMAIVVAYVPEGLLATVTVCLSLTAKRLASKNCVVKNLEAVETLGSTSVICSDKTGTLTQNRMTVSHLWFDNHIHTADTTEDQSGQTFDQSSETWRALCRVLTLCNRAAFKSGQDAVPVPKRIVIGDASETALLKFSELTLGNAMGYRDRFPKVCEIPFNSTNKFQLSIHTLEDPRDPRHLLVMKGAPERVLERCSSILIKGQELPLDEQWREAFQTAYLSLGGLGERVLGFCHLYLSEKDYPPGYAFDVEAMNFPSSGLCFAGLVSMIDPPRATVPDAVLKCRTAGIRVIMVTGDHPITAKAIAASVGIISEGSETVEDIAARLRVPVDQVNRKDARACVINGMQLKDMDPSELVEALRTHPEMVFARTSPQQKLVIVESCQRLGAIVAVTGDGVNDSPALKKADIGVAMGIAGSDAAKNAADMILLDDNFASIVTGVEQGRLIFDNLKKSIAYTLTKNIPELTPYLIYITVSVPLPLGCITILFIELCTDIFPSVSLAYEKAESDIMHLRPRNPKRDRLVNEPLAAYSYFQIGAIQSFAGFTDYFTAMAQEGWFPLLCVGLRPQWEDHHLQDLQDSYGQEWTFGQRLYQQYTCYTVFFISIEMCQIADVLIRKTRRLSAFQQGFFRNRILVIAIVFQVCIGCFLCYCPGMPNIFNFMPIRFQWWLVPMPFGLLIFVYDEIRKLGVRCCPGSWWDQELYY
# H+/K+-ATPase (rabbit gastric mucosal microsomes), sequence (P18597 whole entry partner): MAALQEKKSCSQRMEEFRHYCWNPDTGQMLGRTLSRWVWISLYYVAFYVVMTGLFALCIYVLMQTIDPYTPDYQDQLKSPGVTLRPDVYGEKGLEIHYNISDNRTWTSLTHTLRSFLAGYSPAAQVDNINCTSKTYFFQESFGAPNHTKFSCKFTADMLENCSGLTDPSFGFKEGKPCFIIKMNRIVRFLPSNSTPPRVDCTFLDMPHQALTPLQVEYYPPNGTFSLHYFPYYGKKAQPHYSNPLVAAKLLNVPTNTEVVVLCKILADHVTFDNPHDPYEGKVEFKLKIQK
row,Compound,IC50 [nM]
1,"CNCc1cc(-c2ccc(OC[C@@H]3COCCO3)cc2F)n(S(=O)(=O)c2cccnc2)c1 [Compound 1, (S)-1-(5-(4-((1,4-dioxane-2-yl)methoxy)-2-fluorophenyl)-1-(pyridine-3-ylsulfonyl)-1H-pyrrole-3-yl)-N-methyl methylamine hydrochloride]",585
2,CNCc1cc(-c2ccc(OCC3CCC3)cc2F)n(S(=O)(=O)c2cccnc2)c1 [Compound 2],24.5
3,CNCc1cc(-c2ccc(OCC3CCCC3)cc2F)n(S(=O)(=O)c2cccnc2)c1 [Compound 3],20.9
4,CNCc1cc(-c2ccc(OCC3CCCCC3)cc2F)n(S(=O)(=O)c2cccnc2)c1 [Compound 4],30.9
5,CNCc1cc(-c2ccc(OCC3CCC(F)(F)CC3)cc2F)n(S(=O)(=O)c2cccnc2)c1 [Compound 5],82.4
6,CNCc1cc(-c2ccc(OCC3CCCCO3)cc2F)n(S(=O)(=O)c2cccnc2)c1 (stereo not drawn) [Compound 7],254
7,CNCc1cc(-c2ccc(OC(C)C3CCOCC3)cc2F)n(S(=O)(=O)c2cc(F)cc(F)c2)c1 (stereo not drawn) [Compound 9],25.4
8,CNCc1cc(-c2ccc(OC(C)C3CCOCC3)cc2F)n(S(=O)(=O)c2cccc(C(F)(F)F)c2)c1 (stereo not drawn) [Compound 10],55.3
9,CNCc1cc(-c2ccc(OC(C)C3CCOCC3)cc2F)n(S(=O)(=O)c2ccc(C)c(F)c2)c1 (stereo not drawn) [Compound 11],65.2
10,CNCc1cc(-c2ccc(OC(C)C3CCOCC3)cc2F)n(S(=O)(=O)c2cc(F)ccc2F)c1 (stereo not drawn) [Compound 12],138
11,CNCc1cc(-c2ccc(OC(C)C3CCOCC3)cc2F)n(S(=O)(=O)c2cccc(C#N)c2)c1 (stereo not drawn) [Compound 13],114
12,"CNCc1cc(-c2ccc(OC(C)C3CCOCC3)cc2F)n(S(=O)(=O)c2cccc(OCCOC)c2)c1 (stereo not drawn) [Compound 14, 1-(5-(2-fluoro-4-(1-(tetrahydro-2H-pyran-4-yl)ethoxy)phenyl)-1-((3-(2-methoxyethoxy)phenyl)sulfonyl)-1H-pyrrol-3-yl)-N-methylmethylamine-hydrochloride]",443
13,CNCc1cc(-c2ccc(OC(C)C3CCOCC3)cc2F)n(S(=O)(=O)c2cccc(OC)c2)c1 (stereo not drawn) [Compound 15],83.9
14,CNCc1cc(-c2ccc(OC(C)C3CCOCC3)cc2F)n(S(=O)(=O)c2c(F)cccc2F)c1 (stereo not drawn) [Compound 16],253
15,CNCc1cc(-c2ccc(OC(C)C3CCOCC3)cc2F)n(S(=O)(=O)c2ccc(F)cc2F)c1 (stereo not drawn) [Compound 17],265
16,CNCc1cc(-c2ccc(OC(C)C3CCOCC3)cc2F)n(S(=O)(=O)c2ccc(C#N)cc2)c1 (stereo not drawn) [Compound 18],262
17,CNCc1cc(-c2ccc(OC(C)C3CCOCC3)cc2F)n(S(=O)(=O)c2cccc(F)c2)c1 (stereo not drawn) [Compound 19],233
18,CNCc1cc(-c2ccc(OC(C)C3CCCCC3)cc2F)n(S(=O)(=O)c2cccnc2)c1 (stereo not drawn) [Compound 20],294
19,CNCc1cc(-c2ccc(OCC3CCNCC3)cc2F)n(S(=O)(=O)c2cccnc2)c1 [Compound 21],2790

row,Compound,IC50 [nM]
1,CNCc1cc(-c2ccc(OCC3CCN(C)CC3)cc2F)n(S(=O)(=O)c2cccnc2)c1 [Compound 22],458
2,CNCc1cc(-c2ccc(OCC3CCN(C(C)=O)CC3)cc2F)n(S(=O)(=O)c2cccnc2)c1 [Compound 23],908
3,CNCc1cc(-c2ccc(OCC3CCOCC3)cc2F)n(S(=O)(=O)c2cccc(F)c2)c1 [Compound 24],136
4,CNCc1cc(-c2ccc(OCC3CCOCC3)cc2F)n(S(=O)(=O)c2cccc(Cl)c2)c1 [Compound 25],58.5
5,CNCc1cc(-c2ccc(OCC3CCOCC3)cc2F)n(S(=O)(=O)c2ccc(C)c(F)c2)c1 [Compound 26],202
6,CNCc1cc(-c2ccc(OCC3CCOCC3)cc2F)n(S(=O)(=O)c2cc(F)cc(F)c2)c1 [Compound 27],38.7
7,CNCc1cc(-c2ccc(OCC3CCOCC3)cc2F)n(S(=O)(=O)c2ccc(C#N)cc2)c1 [Compound 29],290
8,CNCc1cc(-c2ccc(OCC3CCOCC3)cc2F)n(S(=O)(=O)c2cccc(OCCF)c2)c1 [Compound 30],474
9,CCCCCOc1cccc(S(=O)(=O)n2cc(CNC)cc2-c2ccc(OCC3CCOCC3)cc2F)c1 [Compound 31],1210
10,CNCc1cc(-c2ccc(OCC3CCOCC3)cc2F)n(S(=O)(=O)c2cccc(OCCCOC)c2)c1 [Compound 32],822
11,CNCc1cc(-c2ccc(OC(C)C3CCOCC3)cc2F)n(S(=O)(=O)c2cccc(OCC3CCC3)c2)c1 (stereo not drawn) [Compound 33],883
12,CNCc1cc(-c2ccc(OCC3CCOCC3)cc2F)n(S(=O)(=O)c2cccc(OCC3CCCC3)c2)c1 [Compound 34],285
13,CNCc1cc(-c2ccc(OCC3CCCCC3)cc2F)n(S(=O)(=O)c2cccc(OCCF)c2)c1 [Compound 35],8650
14,CCCCCOc1cccc(S(=O)(=O)n2cc(CNC)cc2-c2ccc(OCC3CCCCC3)cc2F)c1 [Compound 36],2270
15,CNCc1cc(-c2ccc(OC(C)C3CCOCC3)cc2F)n(S(=O)(=O)c2cccc(OCCCCOC)c2)c1 (stereo not drawn) [Compound 38],199
16,CNCc1cc(-c2ccc(OCC3CCOCC3)cc2F)n(S(=O)(=O)c2cccc(C(F)(F)F)c2)c1 [Compound 39],34.6
17,CNCc1cc(-c2ccc(OC)cc2F)n(S(=O)(=O)c2cccnc2)c1 [Compound 40],123
18,CCOc1ccc(-c2cc(CNC)cn2S(=O)(=O)c2cccnc2)c(F)c1 [Compound 41],567
19,CNCc1cc(-c2ccc(OCC(F)F)cc2F)n(S(=O)(=O)c2cccnc2)c1 [Compound 42],401

row,Compound,IC50 [nM]
1,CNCc1cc(-c2ccc(OCCCOC)cc2F)n(S(=O)(=O)c2cccnc2)c1 [Compound 43],482
2,CNCc1cc(-c2ccc(OCC(C)C)cc2F)n(S(=O)(=O)c2cccnc2)c1 [Compound 44],500
3,CNCc1cc(-c2ccc(OCC(C)(C)C)cc2F)n(S(=O)(=O)c2cccnc2)c1 [Compound 45],204
4,CCNCc1cc(-c2ccc(OCC3CCOCC3)cc2F)n(S(=O)(=O)c2cccnc2)c1 [Compound 46],639
5,CNCc1cc(-c2ccc(OC(C)C3CCOCC3)c(F)c2)n(S(=O)(=O)c2cccnc2)c1 (stereo not drawn) [Compound 47],247
6,CNCc1cc(-c2ccc(OC[C@H]3CO3)cc2F)n(S(=O)(=O)c2cccnc2)c1 [Compound 49],146
7,CNCc1cc(-c2ccc(OC[C@@H]3CO3)cc2F)n(S(=O)(=O)c2cccnc2)c1 [Compound 50],114
8,CNCc1cn(S(=O)(=O)c2cccnc2)c(-c2ccc(OCC3CC3)cc2F)c1F [Compound 51],35.2
9,CNCc1cc(-c2ccc(OCC(C)(C)O)cc2F)n(S(=O)(=O)c2cccnc2)c1 [Compound 52],372
10,CNCc1cc(-c2ccc(OC[C@@H]3C[C@@H]3F)cc2F)n(S(=O)(=O)c2cccnc2)c1 [Compound 53],56.1
11,CNCc1cc(-c2ccc(OCc3cc(F)ccc3F)cc2F)n(S(=O)(=O)c2cccnc2)c1 [Compound 54],17.8
12,CNCc1cc(-c2ccc(OCc3ccc(F)cc3F)cc2F)n(S(=O)(=O)c2cccnc2)c1 [Compound 55],8.6
13,CNCc1cc(-c2ccc(OCc3c(F)cccc3F)cc2F)n(S(=O)(=O)c2cccnc2)c1 [Compound 56],13.3
14,CNCc1cc(-c2ccc(OCc3ccc(F)c(F)c3)cc2F)n(S(=O)(=O)c2cccnc2)c1 [Compound 57],46.3
15,CNCc1cc(-c2ccc(OCc3cc(F)cc(F)c3)cc2F)n(S(=O)(=O)c2cccnc2)c1 [Compound 58],25.7
16,CNCc1cc(-c2ccc(OCc3ccccc3OC(F)F)cc2F)n(S(=O)(=O)c2cccnc2)c1 [Compound 59],41.3
17,CNCc1cc(-c2ccc(OCc3ccccc3OC(F)(F)F)cc2F)n(S(=O)(=O)c2cccnc2)c1 [Compound 60],186
18,CNCc1cc(-c2ccc(OCc3ccc(OC(F)F)cc3)cc2F)n(S(=O)(=O)c2cccnc2)c1 [Compound 61],51.3
19,CNCc1cc(-c2ccc(OCc3cccc4ccccc34)cc2F)n(S(=O)(=O)c2cccnc2)c1 [Compound 62],35.9
